Assay results: patent publication US20120010075A1 (priority 2009, published 2012)
Structures can show the parent of a compound that is named as a salt. Where two headings read alike, the source gives them in different places.

What was measured:
Phytophthora infestans = type: in vivo, Phytophthora infestans on tomato; conditions: applied 24 h before inoculation, assessed 7 days after inoculation
[1] = tested on: Leptosphaeria nodorum (LEPTNO); assay: In vitro fungitoxicity of hydrazones with and without copper towards Leptosphaeria nodorum (Example 26); type: cell-based; conditions: 72 h at 25° C.; for inhibition of growth at 0.05 µg/mL: Parastagonospora nodorum, 72 h, read-out: LEPTNO % Inhn. Minus Copper Observed
[2] = hydrazone 50 ppm with 50 μM CuCl2.2H2O, tomato late blight
[3] = copper-minus medium, test compound Concn. 0.05 μg/mL
[4] = copper-plus medium (CuCl2 10 μM), test compound Concn. 0.05 μg/mL
[5] = hydrazone 50 ppm + 50 μM CuCl2.2H2O, tomato
[6] = compound 0.05 μg/mL, copper-minus medium
[7] = compound 0.05 μg/mL, copper-plus medium (CuCl2.2H2O)

| SMILES | melting point | TLB % Control (Phytophthora infestans; [2]) | inhibition of growth at 0.05 µg/mL [1, 3] | LEPTNO % Inhn. Plus Copper Observed [1, 4] | TLB % Control (Phytophthora infestans; [5]) | inhibition of growth at 0.05 µg/mL [1, 6] | LEPTNO % Inhn. Plus Copper Observed [1, 7] | LEPTNO % Inhn. Minus Copper Observed [1, 6] |
| --- | --- | --- | --- | --- | --- | --- | --- | --- |
| COc1cc(O)c(/C(C)=N/NC(=O)c2ccccc2C)c(OC)c1 [Example 584] | 269 to 274 °C | 7.6% | 3% | 11.8% | – | – | – | – |
| C/C(=N\NC(=O)c1ccccc1Br)c1cc(Br)ccc1O [Example 519] | 216 to 218 °C | 88.0% | 9.1% | 95.7% | – | – | – | – |
| CCOc1cccc(C(=O)N/N=C/c2cc(Cl)cc(Cl)c2O)c1 [Example 86] | 207 to 209 °C | – | – | – | 80.7% | 0.3% | 97.6% | – |
| Cc1cccc(C(=O)N/N=C/c2cccc(Cl)c2O)c1 [Example 423] | 166 to 169 °C | 98.0% | 0.8% | 98.0% | – | – | – | – |
| COc1ccc(/C(C)=N/NC(=O)c2ccccc2)c(O)c1OC [Example 551] | 154 to 155 °C | 90.0% | 1.7% | 96.0% | – | – | – | – |
| O=C(N/N=C/c1cccc(C(F)(F)F)c1O)c1ccccc1 [Example 296] | 170 to 173 °C | 84.7% | 8.3% | 97.7% | – | – | – | – |
| C/C(=N\NC(=O)c1cccc(Cl)c1)c1cc(Br)cc(Br)c1O [Example 544] | 255 to 256 °C | 97.0% | 6.9% | 97.6% | – | – | – | – |
| COc1cc(O)c(/C(C)=N/NC(=O)c2ccc(Br)cc2)c(OC)c1 [Example 570] | 134 to 159 °C | 39.0% | 3.2% | 97.2% | – | – | – | – |
| C/C(=N\NC(=O)c1cccc(Cl)c1)c1cc(Cl)ccc1O [Example 509] | 244 to 249 °C | 85.0% | 0% | 96.2% | – | – | – | – |
| O=C(N/N=C/c1c(O)cccc1Cl)c1cccc(F)c1 [Example 400] | 257 to 259 °C | 96.0% | 0.5% | 97.9% | – | – | – | – |
| C/C(=N\NC(=O)c1cccc(C)c1)c1cc(Br)cc(Br)c1O [Example 541] | 236 to 238 °C | 93.0% | 0% | 97.5% | – | – | – | – |
| Cc1ccc(C(=O)N/N=C(\CCc2ccccc2)c2ccccc2O)c(C)c1 [Example 31] | 143 to 145 °C | – | – | – | 33.3% | 2.2% | 89.0% | – |
| COc1cccc(C(=O)N/N=C/c2cc(Br)ccc2O)c1C [Example 105] | 199 to 201 °C | – | – | – | 74.6% | 5.8% | 95.2% | – |
| C/C(=N\NC(=O)c1ccccc1)c1cccc(Cl)c1O [Example 492] | 202 to 203 °C | 93.0% | 0% | 98.1% | – | – | – | – |
| COc1ccc(O)c(/C(C)=N/NC(=O)c2cccc(C)c2)c1 [Example 263] | 131 to 141 °C | – | – | – | 14.0% | 4.1% | 97.9% | – |
| Cc1cccc(C(=O)N/N=C/c2cc(C(F)(F)F)cc(Cl)c2O)c1 [Example 321] | 204 to 206 °C | 100.0% | 11.7% | 96.6% | – | – | – | – |
| CC(C)c1ccc(C(=O)N/N=C/c2cc(Cl)cc(Cl)c2O)cc1 [Example 41] | 261 to 263 °C | – | – | – | 87.0% | – | 97.2% | 0.0% |
| O=C(N/N=C/c1c(C(F)(F)F)ccc(Cl)c1O)c1ccc([N+](=O)[O-])cc1 [Example 454] | 305 to 307 °C | 100.0% | 12.4% | 100.0% | – | – | – | – |
| O=C(N/N=C/c1ccc(Cl)c(Cl)c1O)c1cccc(F)c1 [Example 356] | 215 to 218 °C | 93.0% | 18.6% | 98.0% | – | – | – | – |
| COc1ccc(C(=O)N/N=C(\C)c2cc(Br)cc(Br)c2O)cc1 [Example 546] | 247 to 248 °C | 100.0% | 7.6% | 97.7% | – | – | – | – |
| C/C(=N\NC(=O)c1cccc(Cl)c1)c1cc(F)cc(F)c1O [Example 577] | 279 to 282 °C | 100.0% | 1.9% | 97.9% | – | – | – | – |
| O=C(N/N=C/c1c(O)cc(Cl)cc1Cl)c1ccccc1 [Example 242] | 273 to 274 °C | – | – | – | 78.0% | 6.9% | 98.0% | – |

| SMILES | melting point | TLB % Control (Phytophthora infestans; [2]) | inhibition of growth at 0.05 µg/mL [1, 3] | LEPTNO % Inhn. Plus Copper Observed [1, 4] | TLB % Control (Phytophthora infestans; [5]) | inhibition of growth at 0.05 µg/mL [1, 6] | LEPTNO % Inhn. Plus Copper Observed [1, 7] | LEPTNO % Inhn. Minus Copper Observed [1, 6] |
| --- | --- | --- | --- | --- | --- | --- | --- | --- |
| O=C(N/N=C/c1c(O)cccc1Cl)c1cccc([N+](=O)[O-])c1 [Example 404] | 269 to 270 °C | 97.0% | 0% | 94.9% | – | – | – | – |
| Cc1ccc(C(=O)N/N=C/c2c(O)cccc2Cl)c(O)c1 [Example 408] | 273 to 276 °C | 94.0% | 8.4% | 79.7% | – | – | – | – |
| O=C(N/N=C/c1ccc(C(F)(F)F)cc1O)c1ccccc1 [Example 294] | 215 to 217 °C | – | – | – | 72.9% | 1.7% | 94.2% | – |
| O=C(N/N=C/c1cc(Cl)ccc1O)c1ccccc1C(F)(F)F [Example 422] | 154 to 164 °C | 90.0% | 0% | 95.5% | – | – | – | – |
| C/C(=N\NC(=O)c1ccc(Br)cc1)c1cc(Br)cc(Br)c1O [Example 547] | 264 to 266 °C | 88.0% | 10.8% | 97.7% | – | – | – | – |
| C/C(=N\NC(=O)c1ccccc1O)c1cc(C(F)(F)F)ccc1O (as salt: Na) [Example 538] | 277 to 297 °C | – | – | – | – | – | – | – |
| Cc1ccc(C(=O)N/N=C/c2ccc(Cl)cc2O)c(O)c1 [Example 397] | 283 to 287 °C | 6.7% | – | – | – | – | – | – |
| O=C(N/N=C/c1cc(Cl)cc(Cl)c1O)c1ccccc1Cl [Example 93] | – | – | – | – | 77.2% | 6% | 95.2% | – |
| O=C(N/N=C/c1cc(Br)ccc1O)c1ccccc1 [Example 148] | – | – | – | – | 72.9% | 15.4% | 97.9% | – |
| C/C(=N\NC(=O)c1ccccc1)c1cc(Cl)ccc1O [Example 504] | – | 94.0% | 1.3% | 97.6% | – | – | – | – |
| O=C(N/N=C/c1cc(Br)cc(Br)c1O)c1ccc(Cl)cc1 [Example 120] | – | – | – | – | 92.6% | 19.9% | 98.2% | – |
| C/C(=N\NC(=O)c1ccccc1[N+](=O)[O-])c1ccccc1O [Example 127] | – | – | – | – | 40.0% | 0% | 97.1% | – |
| O=C(N/N=C/c1cc(Cl)cc(Cl)c1O)c1cccc(Br)c1 [Example 71] | – | – | – | – | 78.0% | 2.6% | 91.2% | – |
| Cc1cccc(C(=O)N/N=C/c2ccccc2O)c1 [Example 174] | – | – | – | – | 72.7% | 0% | 97.0% | – |
| O=C(N/N=C/c1cc([N+](=O)[O-])ccc1O)c1ccc(Cl)cc1 [Example 197] | – | – | – | – | 43.7% | 0% | 97.1% | – |
| Cc1ccc(C)c(C(=O)N/N=C/c2cc(Cl)cc(Cl)c2O)c1 [Example 23] | 169 to 172 °C | – | – | – | 53.3% | – | – | – |
| COc1ccc(C(=O)N/N=C(\C)c2ccccc2O)cc1 [Example 214] | – | – | – | – | 60.0% | 7% | 98.0% | – |
| C/C(=N\NC(=O)c1cccc(C)c1)c1ccccc1O [Example 38] | – | – | – | – | 17.0% | 2.4% | 98.3% | – |
| C/C(=N\NC(=O)c1ccccc1N)c1ccccc1O [Example 51] | – | – | – | – | 4.8% | 0% | 97.6% | – |
| O=C(N/N=C/c1cc(Cl)cc(Cl)c1O)c1ccccc1Oc1ccccc1 [Example 90] | – | – | – | – | 54.6% | 9.5% | 96.4% | – |
| C/C(=N\NC(=O)c1ccc(Cl)cc1Cl)c1ccccc1O [Example 216] | – | – | – | – | 57.9% | 6.3% | 98.4% | – |
| COc1cc(Br)cc(/C=N/NC(=O)c2ccc(Cl)cc2)c1O [Example 205] | – | – | – | – | 78.9% | 15.4% | 97.2% | – |
